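These data come from cells grown in 96-well plates and exposed to compound for 48 hours at five concentrations. The concentration for 50% growth inhibition is given as GI50.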 Activity calls are given as the source filed them. Rule as the data show it: active = GI50 up to about 1.1 µM and inactive = higher.
Legend:
Assay in all cases: growth of human tumour cells (NCI), 48 h
A498 = tested on: A498
COLO 205 = tested on: COLO 205
EKVX = tested on: EKVX
HCC 2998 = tested on: HCC 2998
Hs-578T = tested on: Hs-578T
KM12 = tested on: KM12
M14 = tested on: M14
MDA-MB-231 = tested on: MDA-MB-231
NCI-H226 = tested on: NCI-H226
NCI-H23 = tested on: NCI-H23
NCI-H522 = tested on: NCI-H522
OVCAR-4 = tested on: OVCAR-4
OVCAR-5 = tested on: OVCAR-5
OVCAR-8 = tested on: OVCAR-8
SK-MEL-28 = tested on: SK-MEL-28
SK-OV-3 = tested on: SK-OV-3
SN12C = tested on: SN12C
SR = tested on: SR
UACC-62 = tested on: UACC-62
UO-31 = tested on: UO-31

Measured: GI50

CCCCC(=O)OC[n+]1cccc(-c2c(COC(=O)NC(C)C)c(COC(=O)NC(C)C)c3n2CCC3)c1
inactive: A498 25.8 µM | COLO 205 72.8 µM | EKVX > 100 µM | HCC 2998 > 100 µM | Hs-578T > 50.6 µM | KM12 > 100 µM | M14 40.5 µM | MDA-MB-231 62.5 µM | NCI-H226 55.7 µM | NCI-H23 26.2 µM | NCI-H522 23 µM | OVCAR-4 31.3 µM | OVCAR-5 > 68.1 µM | OVCAR-8 44 µM | SK-MEL-28 > 100 µM | SK-OV-3 > 57.8 µM | SN12C 31.8 µM | SR 4.72 µM | UACC-62 20 µM | UO-31 27 µM

CN(C)c1n/c(=N/Cc2ccncc2)ss1
inactive: A498 > 100 µM | COLO 205 54.5 µM | EKVX > 71.9 µM | HCC 2998 > 52.6 µM | Hs-578T 23.6 µM | KM12 > 10 µM | M14 16.8 µM | MDA-MB-231 37.8 µM | NCI-H226 > 100 µM | NCI-H23 17.5 µM | NCI-H522 16.1 µM | OVCAR-4 18.7 µM | OVCAR-5 22.6 µM | OVCAR-8 17.6 µM | SK-MEL-28 36.8 µM | SK-OV-3 > 40 µM | SN12C 19.6 µM | SR 6.4 µM | UACC-62 30.2 µM | UO-31 > 50 µM

— ChEMBL document CHEMBL1201862, “PubChem BioAssay data set” (2004)
